Source: patent publication US10781224B2, “Bis(oxymethyl)phosphinic acid and biogenic metal salts thereof as regulators of plant growth and development” (priority 2016, dated 2020)

How the values were obtained:
Assay type in all cases: in vivo
[1] = system: winter wheat (Vershin variety); assay: Winter wheat seed treatment with BHMPA salts: germination energy and germination rate
Summary of the method: (§1)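 Corn, winter wheat and rice seeds (50 per dish, on filter paper) were soaked for 1 h in BHMPA or its metal salts at 1·10^−6-1·10^−12%, with water as control. Germination energy was read on day 4 and germination rate on day 8 for wheat and day 7 for rice and corn, following GOST 12038-84, as the mean of four replicates.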

[2] = system: corn (Krasnodar 385 MV variety); assay: Corn seed treatment with BHMPA salts: germinating power
Summary of the method: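 Seeds (50 per Petri dish on two layers of filter paper) soaked 1 h in BHMPA or its Ca, Mg, Na, Co, Mn, Cu or Zn salts at 1·10^−6-1·10^−12%, with water controls. Germination energy read on day 4, germination on day 8 (wheat) or day 7 (rice, corn), as % means of four replicates. Germinating power taken as root and sprout length plus wet and dry mass per 100 seedlings.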

rice (Diamant variety) = assay: Rice seed treatment with BHMPA salts: germination energy and germination rate
Summary of the method: as §1

[3] = winter wheat Vershin, 1·10^−6% solution
[4] = winter wheat Vershin, 1·10^−7% solution
[5] = winter wheat Vershin, 1·10^−8% solution
[6] = winter wheat Vershin, 1·10^−9% solution
[7] = winter wheat Vershin, 1·10^−10% solution
[8] = winter wheat Vershin, 1·10^−11% solution
[9] = winter wheat Vershin, 1·10^−12% solution
[10] = winter wheat, comparative study vs Melaphen, 1·10^−12% solution
[11] = corn seeds, solution concentration 1 · 10^−10%
[12] = rice seed treatment, solution 1 · 10^−9%
[13] = seed treatment, concentration 1 · 10^−6%
[14] = seed treatment, concentration 1 · 10^−7%
[15] = seed treatment, concentration 1 · 10^−8%
[16] = seed treatment, concentration 1 · 10^−9%
[17] = seed treatment, concentration 1 · 10^−10%
[18] = seed treatment, concentration 1 · 10^−11%
[19] = seed treatment, concentration 1 · 10^−12%

O=P([O-])(CO)CO.O=P([O-])(CO)CO.[Ca+2] [Ca-salt, Calcium BHMPA Salt]
Germination energy [1, 3]: 85.3% | Germination rate [1, 3]: 88.0% | Germination energy [1, 4]: 90.8% | Germination rate [1, 4]: 94.3% | Germination energy [1, 5]: 80.9% | Germination rate [1, 5]: 84.0% | Germination energy [1, 6]: 81.2% | Germination rate [1, 6]: 85.3% | Germination energy [1, 7]: 86.1% | Germination rate [1, 7]: 88.0% | Germination energy [1, 8]: 87.0% | Germination rate [1, 8]: 89.3% | Germination energy [1, 9]: 88.9% | Germination rate [1, 9]: 92.0% | Germination energy [1, 10]: 87.0% | Germination rate [1, 10]: 93.7% | optimum concentration for treating corn seeds before sowing ([2]; corn): 1·10^−10% | Length, root [2, 11]: 6.6 cm | Length, root, + % to control [2, 11]: 12% | Length, sprout [2, 11]: 3.2 cm | Length, sprout, + % to control [2, 11]: 18.5% | Mass, dry, root [2, 11]: 2.03 g/100 plantlings | Mass, dry, root, + % to control [2, 11]: 15% | Mass, dry, sprout [2, 11]: 1.47 g/100 plantlings | Mass, dry, sprout, + % to control [2, 11]: 8% | Mass, wet, root [2, 11]: 9.63 g/100 plantlings | Mass, wet, root, + % to control [2, 11]: 10% | Mass, wet, sprout [2, 11]: 8.59 g/100 plantlings | Mass, wet, sprout, + % to control [2, 11]: 21% | Length, root ([2]; corn, 1·10^−6% solution): 4.2 cm | Length, root, + % to control ([2]; corn, 1·10^−6% solution): −7% | Length, sprout ([2]; corn, 1·10^−6% solution): 2.5 cm | Length, sprout, + % to control ([2]; corn, 1·10^−6% solution): −4% | Mass, dry, root ([2]; corn, 1·10^−6% solution): 1.09 g/100 plantlings | Mass, dry, root, + % to control ([2]; corn, 1·10^−6% solution): −2% | Mass, dry, sprout ([2]; corn, 1·10^−6% solution): 0.63 g/100 plantlings | Mass, dry, sprout, + % to control ([2]; corn, 1·10^−6% solution): −9% | Mass, wet, root ([2]; corn, 1·10^−6% solution): 7.30 g/100 plantlings | Mass, wet, root, + % to control ([2]; corn, 1·10^−6% solution): −2.5% | Mass, wet, sprout ([2]; corn, 1·10^−6% solution): 4.21 g/100 plantlings | Mass, wet, sprout, + % to control ([2]; corn, 1·10^−6% solution): −6% | difference from the control in germinating power ([2]; corn, 1·10^−6%, 1·10^−7% and 1·10^−12% solutions): rather insignificant | Length, root ([2]; corn, 1·10^−7% solution): 4.6 cm | Length, root, + % to control ([2]; corn, 1·10^−7% solution): 2% | Length, sprout ([2]; corn, 1·10^−7% solution): 2.7 cm | Length, sprout, + % to control ([2]; corn, 1·10^−7% solution): 4% | Mass, dry, root ([2]; corn, 1·10^−7% solution): 1.20 g/100 plantlings | Mass, dry, root, + % to control ([2]; corn, 1·10^−7% solution): 8% | Mass, dry, sprout ([2]; corn, 1·10^−7% solution): 0.72 g/100 plantlings | Mass, dry, sprout, + % to control ([2]; corn, 1·10^−7% solution): 4% | Mass, wet, root ([2]; corn, 1·10^−7% solution): 7.75 g/100 plantlings | Mass, wet, root, + % to control ([2]; corn, 1·10^−7% solution): 3% | Mass, wet, sprout ([2]; corn, 1·10^−7% solution): 4.67 g/100 plantlings | Mass, wet, sprout, + % to control ([2]; corn, 1·10^−7% solution): 5% | Length, root ([2]; corn, 1·10^−8% solution): 4.8 cm | Length, root, + % to control ([2]; corn, 1·10^−8% solution): 7% | Length, sprout ([2]; corn, 1·10^−8% solution): 2.8 cm | Length, sprout, + % to control ([2]; corn, 1·10^−8% solution): 8% | Mass, dry, root ([2]; corn, 1·10^−8% solution): 1.24 g/100 plantlings | Mass, dry, root, + % to control ([2]; corn, 1·10^−8% solution): 12% | Mass, dry, sprout ([2]; corn, 1·10^−8% solution): 0.85 g/100 plantlings | Mass, dry, sprout, + % to control ([2]; corn, 1·10^−8% solution): 23% | Mass, wet, root ([2]; corn, 1·10^−8% solution): 8.13 g/100 plantlings | Mass, wet, root, + % to control ([2]; corn, 1·10^−8% solution): 8.5% | Mass, wet, sprout ([2]; corn, 1·10^−8% solution): 4.84 g/100 plantlings | Mass, wet, sprout, + % to control ([2]; corn, 1·10^−8% solution): 8.5% | Length, root ([2]; corn, 1·10^−9% solution): 5.2 cm | Length, root, + % to control ([2]; corn, 1·10^−9% solution): 15.5% | Length, sprout ([2]; corn, 1·10^−9% solution): 3.0 cm | Length, sprout, + % to control ([2]; corn, 1·10^−9% solution): 15% | Mass, dry, root ([2]; corn, 1·10^−9% solution): 1.26 g/100 plantlings | Mass, dry, root, + % to control ([2]; corn, 1·10^−9% solution): 13.5% | Mass, dry, sprout ([2]; corn, 1·10^−9% solution): 0.96 g/100 plantlings | Mass, dry, sprout, + % to control ([2]; corn, 1·10^−9% solution): 39% | Mass, wet, root ([2]; corn, 1·10^−9% solution): 9.18 g/100 plantlings | Mass, wet, root, + % to control ([2]; corn, 1·10^−9% solution): 22.5% | Mass, wet, sprout ([2]; corn, 1·10^−9% solution): 4.99 g/100 plantlings | Mass, wet, sprout, + % to control ([2]; corn, 1·10^−9% solution): 12% | Length, root ([2]; corn, 1·10^−10% solution): 5.4 cm | Length, root, + % to control ([2]; corn, 1·10^−10% solution): 20% | Length, sprout ([2]; corn, 1·10^−10% solution): 3.2 cm | Length, sprout, + % to control ([2]; corn, 1·10^−10% solution): 23% | Mass, dry, root ([2]; corn, 1·10^−10% solution): 1.34 g/100 plantlings | Mass, dry, root, + % to control ([2]; corn, 1·10^−10% solution): 21% | Mass, dry, sprout ([2]; corn, 1·10^−10% solution): 1.23 g/100 plantlings | Mass, dry, sprout, + % to control ([2]; corn, 1·10^−10% solution): 78% | Mass, wet, root ([2]; corn, 1·10^−10% solution): 9.82 g/100 plantlings | Mass, wet, root, + % to control ([2]; corn, 1·10^−10% solution): 31% | Mass, wet, sprout ([2]; corn, 1·10^−10% solution): 5.61 g/100 plantlings | Mass, wet, sprout, + % to control ([2]; corn, 1·10^−10% solution): 26% | Length, root ([2]; corn, 1·10^−11% solution): 5.2 cm | Length, root, + % to control ([2]; corn, 1·10^−11% solution): 15.5% | Length, sprout ([2]; corn, 1·10^−11% solution): 2.9 cm | Length, sprout, + % to control ([2]; corn, 1·10^−11% solution): 11.5% | Mass, dry, root ([2]; corn, 1·10^−11% solution): 1.30 g/100 plantlings | Mass, dry, root, + % to control ([2]; corn, 1·10^−11% solution): 17% | Mass, dry, sprout ([2]; corn, 1·10^−11% solution): 1.09 g/100 plantlings | Mass, dry, sprout, + % to control ([2]; corn, 1·10^−11% solution): 58% | Mass, wet, root ([2]; corn, 1·10^−11% solution): 9.44 g/100 plantlings | Mass, wet, root, + % to control ([2]; corn, 1·10^−11% solution): 26% | Mass, wet, sprout ([2]; corn, 1·10^−11% solution): 5.15 g/100 plantlings | Mass, wet, sprout, + % to control ([2]; corn, 1·10^−11% solution): 15% | Length, root ([2]; corn, 1·10^−12% solution): 4.6 cm | Length, root, + % to control ([2]; corn, 1·10^−12% solution): 2% | Length, sprout ([2]; corn, 1·10^−12% solution): 2.7 cm | Length, sprout, + % to control ([2]; corn, 1·10^−12% solution): 4% | Mass, dry, root ([2]; corn, 1·10^−12% solution): 1.23 g/100 plantlings | Mass, dry, root, + % to control ([2]; corn, 1·10^−12% solution): 11% | Mass, dry, sprout ([2]; corn, 1·10^−12% solution): 0.81 g/100 plantlings | Mass, dry, sprout, + % to control ([2]; corn, 1·10^−12% solution): 17% | Mass, wet, root ([2]; corn, 1·10^−12% solution): 8.65 g/100 plantlings | Mass, wet, root, + % to control ([2]; corn, 1·10^−12% solution): 15% | Mass, wet, sprout ([2]; corn, 1·10^−12% solution): 4.73 g/100 plantlings | Mass, wet, sprout, + % to control ([2]; corn, 1·10^−12% solution): 6% | Germination energy, % (rice (Diamant variety); [12]): 86.3% | Germination rate, % (rice (Diamant variety); [12]): 93.3% | Germination energy (rice (Diamant variety); rice, 1·10^−10% solution): 85.0% | Germination rate (rice (Diamant variety); rice, 1·10^−10% solution): 92.0% | Germination energy (rice (Diamant variety); [13]): 75.9% | Germination rate (rice (Diamant variety); [13]): 81.0% | Germination energy (rice (Diamant variety); [14]): 76.0% | Germination rate (rice (Diamant variety); [14]): 83.3% | Germination energy (rice (Diamant variety); [15]): 79.3% | Germination rate (rice (Diamant variety); [15]): 85.0% | Germination energy (rice (Diamant variety); [16]): 82.0% | Germination rate (rice (Diamant variety); [16]): 87.0% | Germination energy (rice (Diamant variety); [17]): 85.0% | Germination rate (rice (Diamant variety); [17]): 92.0% | Germination energy (rice (Diamant variety); [18]): 83.3% | Germination rate (rice (Diamant variety); [18]): 89.3% | Germination energy (rice (Diamant variety); [19]): 78.3% | Germination rate (rice (Diamant variety); [19]): 84.3%
